Experimental data reported in publication PMC12505664, “Enflicoxib for the long-term management of canine osteoarthritis—External validation of a population pharmacokinetic model in dogs with osteoarthritis” (Frontiers in Veterinary Science, 2025).
Where two headings read alike, the source gives them in different places. Each block holds one compound with its values, some of them ahead of it.

Key:
canine osteoarthritis = tested on: canine osteoarthritis; design: method as in Salichs et al., Vet Rec. 2022; conditions: Mavacoxib group n=58, ref Salichs et al., Vet Rec. 2022, cited from earlier work
[1] = design: method as in PMID 34160092; conditions: previously validated method, cited from earlier work
[2] = design: method as in PMID 34160092; conditions: Beagle dogs, oral enflicoxib; cited from earlier work
[3] = design: method as in PMID 34854245; conditions: popPK model, cited from earlier work
[4] = Maximum a posteriori Bayesian (MAPB) estimation of individual PK parameters in dogs with OA; type: in vivo
Source text: As a similar PK behavior between populations was concluded, the same popPK model could be used, and a Bayesian approach was used for the determination of individual enflicoxib and the pyrazol metabolite exposure in osteoarthritic animals.
A maximum a posteriori Bayesian (MAPB) estimation using the post hoc subroutine in NONMEM was used to provide the individual PK parameters in osteoarthritic dogs.
MAPB estimation applied likelihood maximization in the form of minimizing the objective function (minus 2 log likelihood), to estimate individual PK parameters of each dog with OA. In this analysis, the MAPB estimation incorporated both a priori PK information, that is, the established PK model of enflicoxib and the pyrazol metabolite in healthy Beagle dogs, and a posteriori PK data, which corresponds to PK data from osteoarthritic dogs. The individual PK parameters along with individual predicted PK profiles for each dog treated with enflicoxib were calculated by fitting the animal PK dataset, which includes dosing, sampling times, parent and metabolite levels, and covariate information, to the established population enflicoxib and the pyrazol metabolite PK model in healthy Beagle dogs.
The maximum a posteriori Bayesian (MAPB) estimation was applied to provide the most likely individual PK profile for each dog with OA, using the “POSTHOC” subroutine and $ESTIMATION command set to MAXEVAL=0 in NONMEM.
Individual PK parameters and individual PK profiles of enflicoxib and the pyrazol metabolite were estimated for each dog.
Finally, the Bayesian approach enabled the estimation of the main individual PK parameters of enflicoxib and the pyrazol metabolite. Using these individual PK parameters, predicted profiles for each animal were estimated, allowing the calculation of the derived exposure parameters, such as Cmax, Cmin, AUCτ, and T1/2 in all treated dogs. The distribution and the mean estimates of enflicoxib and the pyrazol metabolite PK parameters at selected time points are depicted in Supplementary Figures S3, S4, respectively.

[5] = overdose study, repeated weekly administrations, Beagle dogs; cited from earlier work
[6] = Plasma levels of enflicoxib and pyrazol metabolite in the 6-month field clinical study (HPLC-MS/MS); type: in vivo, client-owned dogs with OA; conditions: for Mean plasma level: oral 8 mg/kg then 4 mg/kg weekly
Method: A prospective, multisite, blinded, randomized, placebo-controlled, parallel-group field study was performed in accordance with Good Clinical Practice standards ([16]). The study aimed to confirm the safety and efficacy of enflicoxib treatment of pain and inflammation associated with naturally occurring canine OA in dogs of any breed and sex treated for 6 months. The protocol was approved by the regulatory authorities of both Portugal and Hungary. Written informed consent was obtained from all dog owners prior to enrolment of their dogs. Dogs remained under the care of their owners at home throughout the study.
Before enrolment, all dogs underwent a physical examination, and blood and urine samples were taken. After enrollment, dogs were randomized in a predefined enflicoxib:placebo ratio of 3:1. Enflicoxib was dosed orally at weekly intervals, with an initial dose of 8 mg/kg, followed by once-a-week maintenance doses of 4 mg/kg for a total of 26 weeks. Dogs in the enflicoxib group received Daxocox® tablets (Ecuphar/Animalcare group), while dogs in the placebo group received the same formulation without the active ingredient under the same posology (number of tablets and dosing interval). […] No positive control was included due to difficulties in maintaining blinding with products under different posology during the entire follow-up period.
Two blood samples for popPK analysis were collected from all animals enrolled in the study one on day 44(±2 days)/1.5 months, (similar to the last sample taken in the previous clinical studies), after clinical assessment of pain and lameness and prior to treatment administration and another one at the end of the study on day 189/6 months (±2 days), or individual premature study termination day. Day 189 corresponds to the trough concentration after the 27th weekly administration (PK sample taken at the end of the weekly dosing interval). Meanwhile, day 44 corresponds to a PK sample obtained 2 days after the 7th weekly administration. The veterinary practices had the necessary resources and adequate freezing equipment for the long-term storage of plasma samples. Blood samples were collected into potassium-3-ethylenediaminetetraacetic acid (K3EDTA) labeled tubes, which were immediately centrifuged at ~2,500g for 10 min (at +4 °C whenever possible) to obtain plasma. Once received, plasma was transferred into two labeled propylene tubes (aliquots 1 and 2). Each plasma aliquot was stored frozen at a nominal temperature of −20 (±2) °C until shipment to the Laboratory of analysis Welab Barcelona (Parc Científic de Barcelona, C/Baldiri Reixac 4-12, 08028, Barcelona). The maximum storage time for the samples was 376 days at nominally −20 °C/−80 °C. Considering the long-term stability of enflicoxib and its metabolite in dog plasma samples stored at −20 °C, which spans a minimum of 402 days, the stability of the study samples was guaranteed for the entire duration of the study. Samples were analyzed without information on the treatment allocation (laboratory-blinded study).
Enflicoxib and pyrazol metabolite plasma levels were measured by a previously fully validated high-performance liquid chromatography (HPLC)-method coupled with tandem mass spectrometry (MS/MS) detection as described in Homedes et al. ([4]).

[7] = metabolite, typical value at 9.9 kg
[8] = weeks 12–26, Bayesian predicted profiles

SMILES: NS(=O)(=O)c1ccc(-n2nc(C(F)(F)F)cc2-c2ccc(F)cc2)cc1 [Mavacoxib]
- Number of animals presenting AEs (%): Emesis or nausea (canine osteoarthritis; AEs classified A, B or O): 4 (6.9)
- Emesis and nausea: Number of events (canine osteoarthritis; AEs related to the GI system): 6
- Diarrhoea / pasty stools: Duration range (canine osteoarthritis): 1 to 4 days
- Diarrhoea / pasty stools: Mean duration (canine osteoarthritis): 2 days
- Diarrhoea / pasty stools: Number of events (canine osteoarthritis): 3
- Diarrhoea / pasty stools: Treatment needed (canine osteoarthritis): 0
- Emesis and nausea: Mean duration (canine osteoarthritis): 4.2 days
- Emesis and nausea: Treatment needed (canine osteoarthritis): 2
- Number of animals presenting AEs (%): Abdominal pain (canine osteoarthritis): 0
- Number of animals presenting AEs (%): Acute renal failure (canine osteoarthritis): 1 (1.7)
- Number of animals presenting AEs (%): Apathy (canine osteoarthritis): 0
- Number of animals presenting AEs (%): Constipation (canine osteoarthritis): 1 (1.7)
- Number of animals presenting AEs (%): Diarrhoea or pasty stools (canine osteoarthritis): 3 (5.2)
- Number of animals presenting AEs (%): Increased salivation (canine osteoarthritis): 0
- Number of animals presenting AEs (%): Polydipsia (canine osteoarthritis): 0
- Number of animals presenting AEs (%): Total (canine osteoarthritis): 6 (10.3)
- Number of animals presenting AEs (%): Weight loss (canine osteoarthritis): 0
- Emesis and nausea: Duration range (canine osteoarthritis; upper end one animal): 1 to 14 days

- Time to PK steady-state ([4]; weekly treatment): 10–12 weeks
- AUCτ [4, 8]: 16,742 ng/ml·day
- Cmax [4, 8]: ~ 2,490 ng/mL
- Cmin [4, 8]: 2,243 ng/mL
- Mean plasma level ([6]; day 44 (2 days after 7th weekly administration), N=75): 2,105.6 ng/mL
- Max plasma level ([6]; day 44, N=75): 4,728.5 ng/mL
- Min plasma level ([6]; day 44, N=75): 2.5 ng/mL
- Probability (%) concentration < 10 ng/mL ([6]; day 44, N=75): 4.0%
- Probability (%) concentration < LOQ ([6]; day 44, N=75): 4.0%
- Probability (%) concentration < 10 ng/mL ([6]; day 44, N=75, listed as pyrazol metabolite): 4%
- Mean plasma level ([6]; day 93 (premature study termination), N=2): 3,928.8 ng/mL
- Max plasma level ([6]; day 93, N=2): 5,029.0 ng/mL
- Min plasma level ([6]; day 93, N=2): 2,828.5 ng/mL
- Probability (%) concentration < 10 ng/mL ([6]; day 93, N=2): 0.0%
- Probability (%) concentration < LOQ ([6]; day 93, N=2): 0.0%
- Mean plasma level ([6]; day 189 (trough after 27th weekly administration), N=65): 2,317.4 ng/mL
- Max plasma level ([6]; day 189, N=65): 7,541.8 ng/mL
- Min plasma level ([6]; day 189, N=65): 2.5 ng/mL
- Probability (%) concentration < 10 ng/mL ([6]; day 189, N=65): 4.6%
- Probability (%) concentration < LOQ ([6]; day 189, N=65): 1.5%
- Probability (%) concentration < 10 ng/mL ([6]; day 189, N=65, listed as pyrazol metabolite): 5%
SMILES: NS(=O)(=O)c1ccc(-n2nc(C(F)(F)F)cc2-c2ccc(F)cc2F)cc1 [Pyrazol metabolite]
- Stability in dog plasma ([1]; following 4 freeze–thaw cycles): stable
- Stability in dog plasma ([1]; nominally −20 °C for 402 days): stable
- Stability in dog plasma ([1]; room temperature for 4 h): stable
- Long-term stability in dog plasma samples ([1]; stored at −20 °C): ≥ 402 days
- mean terminal elimination half-life (t 1/2) [2]: 17 days
- IIV of CLM/F (apparent clearance) ([3]; interindividual variability as % CV): 31%
- Residual variability ([3]; log error model, % CV): 20%
- CLM/F = θ7·(WGT/9.9)^0.75, θ7 estimate (apparent clearance) [3, 7]: 0.111 L/h
- VM/F = θ4·(WGT/9.9)^1.0, θ4 estimate (apparent volume of distribution, central compartment) [3, 7]: 6.59 L
- Time-dependent pharmacokinetics or over-accumulation ([4]; 6 months of weekly treatment): no evidence of time-dependent pharmacokinetics or over-accumulation
- Dose proportionality of pharmacokinetics [5]: dose-proportional pharmacokinetics
